The record followed here is ChEMBL document CHEMBL1142861, “Septocylindrins A and B: peptaibols produced by the terrestrial fungus Septocylindrium sp. LL-Z1518” (2007).

≈ marks a conversion by molar mass, not a printed value. Non-standard residues stand in square brackets, D forms with d. Residues, ends and D or L forms follow the SMILES beside them. *: point of attachment. X1 = OCCNC[C@H](Cc1ccccc1)N*; Aib = CC(C)(N)C(=O)O

A word on the MIC: it is the least concentration at which growth counts as inhibited. High values mean weaker potency, low ones greater potency.

Format in all cases: functional
For assay [1], the system named is Staphylococcus aureus. The experiment in a line: Antimicrobial activity against wild type Staphylococcus aureus by broth dilution method.
Assay [2] relates to Staphylococcus aureus. The experiment in a line: Antimicrobial activity against methicillin-resistant Staphylococcus aureus by broth dilution method.
The next assay has as its system Enterococcus faecium. The experiment in a line: Antimicrobial activity against vancomycin-resistant Enterococcus faecium by broth dilution method.
Assay [3] concerns Escherichia coli. The assay can be described thus: Antimicrobial activity against membrane permeability mutant Escherichia coli imp by broth dilution method. (Dilution methods test growth across graded concentrations, often in twofold steps.)
Assay [4] relates to Escherichia coli. The assay can be described thus: Antimicrobial activity against wild type Escherichia coli by broth dilution method.
In another assay the test system is Candida albicans. The experiment in a line: Antimicrobial activity against Candida albicans by broth dilution method.

For the molecule `CC(=O)NC(C)(C)C(=O)N1CCC[C@H]1C(=O)NC(C)(C)C(=O)N[C@@H](C)C(=O)NC(C)(C)C(=O)N[C@@H](C)C(=O)N[C@@H](CCC(N)=O)C(=O)NC(C)(C)C(=O)N[C@H](C(=O)NC(C)(C)C(=O)NCC(=O)N[C@@H](CC(C)C)C(=O)NC(C)(C)C(=O)N1CCC[C@H]1C(=O)N[C@H](C(=O)NC(C)(C)C(=O)NC(C)(C)C(=O)N[C@@H](CCC(=O)O)C(=O)N[C@@H](CCC(N)=O)C(=O)N[C@H](CNCCO)Cc1ccccc1)C(C)C)C(C)C` [septocylindrin A] (Ac-[Aib]P[Aib]A[Aib]AQ[Aib]V[Aib]GL[Aib]PV[Aib][Aib]EQ-X1), the MIC with Staphylococcus aureus [1] is 32 µg/mL (≈ 15.9 µM); against Staphylococcus aureus [2], 128 µg/mL (≈ 63.8 µM); against Enterococcus faecium it was 16 µg/mL (≈ 7.97 µM); against Escherichia coli [3], 32 µg/mL (≈ 15.9 µM); in the assay with Escherichia coli [4], greater than 128 µg/mL; with Candida albicans, 32 µg/mL (≈ 15.9 µM).
For `CC(=O)NC(C)(C)C(=O)N1CCC[C@H]1C(=O)NC(C)(C)C(=O)N[C@@H](C)C(=O)NC(C)(C)C(=O)N[C@@H](C)C(=O)N[C@@H](CCC(N)=O)C(=O)NC(C)(C)C(=O)N[C@H](C(=O)NC(C)(C)C(=O)NCC(=O)N[C@@H](CC(C)C)C(=O)NC(C)(C)C(=O)N1CCC[C@H]1C(=O)N[C@H](C(=O)NC(C)(C)C(=O)NC(C)(C)C(=O)N[C@@H](CCC(N)=O)C(=O)N[C@@H](CCC(N)=O)C(=O)N[C@H](CNCCO)Cc1ccccc1)C(C)C)C(C)C` [septocylindrin B] (Ac-[Aib]P[Aib]A[Aib]AQ[Aib]V[Aib]GL[Aib]PV[Aib][Aib]QQ-X1), the MIC is 8 µg/mL (≈ 3.99 µM) in the assay with Staphylococcus aureus [1]; 16 µg/mL (≈ 7.97 µM) with Staphylococcus aureus [2]; 8 µg/mL (≈ 3.99 µM) in the assay on Enterococcus faecium; 8 µg/mL (≈ 3.99 µM) against Escherichia coli [3]; greater than 128 µg/mL against Escherichia coli [4]; 16 µg/mL (≈ 7.97 µM) with Candida albicans.
